These results are taken from article PMC6379368, “Extracellular and intracellular small-molecule galectin-3 inhibitors” (Scientific Reports, 2019).

Data set [1] relates to pathological corneal neovascularization and fibrosis. Set-up: method as in PMID 27356186, PMID 28055102. Conditions: cited from earlier work.
The test system of data set [2] is BxPc-3 cells. As to the kind of experiment: MTT assay, BxPc-3 pancreatic cancer cells. The class given is cell-based. The note with it: BxPc-3, 72 hours. The protocol: (§1) The MTT (3-[4,5-dimethylthiazol-2-yl]−2,5-diphenyltetrazolium bromide) assays were performed as previously described. In brief, cells were seeded in 96-well plates (6000 cells/well for MCF-7 and HCC1937 and 5000 cells for JIMT-1 in 180 μl fully-supplemented medium as described under Cell culture). The cells were incubated for 24 hours before addition of galectin-3 inhibitors. The inhibitors were diluted in PBS from their respective stock solution in DMSO (see Galectin-3 inhibitors) and used at final concentrations ranging from 0.04 to 40 μM. DMSO was adjusted to make the final DMSO concentration 0.2% for all inhibitor concentrations, including the control sample (no inhibitor). After 72 hours of treatment, 20 μl of 5 mg/ml MTT solution (in PBS) was added to each well and incubation continued for 1 hour at 37 °C. […] Absorbance was monitored at 540 nm using a Labsystems iEMS Reader MF (Labsystems Oy, Helsinki, Finland) and the software DeltaSoft II v.4.14 (Biometallics Inc., Princeton, NJ, USA). […]
(§2) Fluorescence anisotropy assay
(§3) The affinity between inhibitor 1 and the carbohydrate recognition domain (CRD) of galectin-8C and between inhibitor 3 and the CRD of galectin-2, -4N, -4C, 8C, and -9C was determined using the fluorescence anisotropy assay described in the main article. […]

The subject of data set [3] is animal models of idiopathic pulmonary fibrosis (IPF). Further details: method as in PMID 27356186, PMID 28055102. The note with it: cited from earlier work.
The test system of another data set is AsPC-1 cells. As to the kind of experiment: Growth curves, AsPC-1. Type of data set: cell-based. The note with it: AsPC-1, 10 µM. The protocol: (§4) METHODS (not described in main article)
(§5) The AsPC-1, BxPc-3, MIA PaCa-2, and PanC-1 pancreatic cancer cell lines were purchased from the American Type Culture Collection (ATCC) (Manassas, VA, USA). AsPC-1 and BxPc-3 cell lines were cultured in RPMI-1640 medium, and MIA PaCa-2 and PanC-1 in Dulbecco's Modified Eagle Medium (DMEM)/Ham's F12 medium mixture (1:1). The medium of all four pancreatic cancer cell lines was supplemented with 10 % fetal bovine serum (FBS), 100 U/ml penicillin, and 100 μg/ml streptomycin. The L56Br-C1 breast cancer cell line was established at Lund University (Lund, Sweden)1, and was cultured in RPMI-1640 medium supplemented with 10 % heat-inactivated FBS, 100 U/ml penicillin, 100 μg/ml streptomycin, 1 mM non-essential amino acids, and 10 µg/ml insulin. The MCF-10A normal-like breast cell line was obtained from ATCC and was cultured in the same medium mixture as L56Br-C1 with the addition of 20 ng/ml epidermal growth factor, 50 ng/ml cholera toxin, and 500 ng/ml hydrocortisone.
as §2
(§6) The affinity between inhibitor 1 and the carbohydrate recognition domain (CRD) of galectin-8C and between inhibitor 3 and the CRD of galectin-2, -4N, -4C, 8C, and -9C was determined using the fluorescence anisotropy assay described in the main article. Experimental conditions used for each galectin […]

For another data set, the system named is PanC-1 cells. As to the kind of experiment: MTT assay, PanC-1 pancreatic cancer cells. The class given is cell-based. Conditions: PanC-1, 72 hours. The protocol: as §1, §2, §3
Background: Tetrazolium dyes change colour on reduction, which living cells bring about.

Another data set concerns HCC1937 cells. As to the kind of experiment: MTT cell viability assay, HCC1937. Conditions: HCC1937, 72 hours, 0.04–40 µM for 1 and 2, 0.04–20 µM for 3. Type of data set: cell-based. The protocol: The MTT (3-[4,5-dimethylthiazol-2-yl]−2,5-diphenyltetrazolium bromide) assays were performed as previously described. […] The cells were incubated for 24 hours before addition of galectin-3 inhibitors. The inhibitors were diluted in PBS from their respective stock solution in DMSO (see Galectin-3 inhibitors) and used at final concentrations ranging from 0.04 to 40 μM. DMSO was adjusted to make the final DMSO concentration 0.2% for all inhibitor concentrations, including the control sample (no inhibitor). After 72 hours of treatment, 20 μl of 5 mg/ml MTT solution (in PBS) was added to each well and incubation continued for 1 hour at 37 °C. Thereafter, the MTT containing medium was removed and 100 μl of DMSO was added per well and the plates swirled gently for 10 minutes to dissolve the cells and the purple formazan product precipitate. Absorbance was monitored at 540 nm using a Labsystems iEMS Reader MF (Labsystems Oy, Helsinki, Finland) and the software DeltaSoft II v.4.14 (Biometallics Inc., Princeton, NJ, USA).

Data set [4] has as its system BxPc-3 cells. As to the kind of experiment: Growth curves, BxPc-3. The class given is cell-based. Conditions: BxPc-3, 10 µM. The protocol:
as §4, §5, §2, §6

SMILES strings stand for the structures.

For the compound `OC[C@H]1O[C@@H](S[C@@H]2O[C@H](CO)[C@H](O)[C@H](n3cc(-c4cccc(F)c4)nn3)[C@H]2O)[C@H](O)[C@@H](n2cc(-c3cccc(F)c3)nn2)[C@H]1O` [compound 1], the “effect in pathological corneal neovascularization and fibrosis” value in data set [1] was “therapeutic effects”. For the same compound, the “toxicity (MTT)” value in the data set with BxPc-3 cells [2] and with PanC-1 cells was “low toxicity” in each case. Further, in data set [3], the “effect in animal models of idiopathic pulmonary fibrosis (IPF)” value is given as “therapeutic effects”. For the same compound, the “cell proliferation (growth curves)” value in the data set with AsPC-1 cells and in the data set on BxPc-3 cells [4] was “no effect” in each case. Moreover, the “cell viability (MTT)” value in the data set with HCC1937 cells is recorded as “no apparent change in cell viability”.
